For experiment [1], the system named is bovine microtubule-associated protein (MAP)-rich tubulin. The experiment is classed as biochemical. The gist of the method: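 MAP-rich bovine tubulin at 1.5 mg/ml final was dissolved in cold PEM buffer (80 mM Na-PIPES pH 6.9, 1 mM MgCl2, 1 mM EGTA) with 1 mM GTP, then centrifuged at 12,000×g for 10 min at 4° C. Aliquots of 100 μl were added quickly to a low-volume 96-well plate holding duplicate 10 μl compound samples. Absorbance at 340 nm was read each minute for 60 min at 24° C.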

Another experiment has as its system KB cells. As to the kind of experiment: cells. The experiment is classed as cell-based. As to conditions: for IC50: 3 days, SRB; for inhibition at 3 µM: 3000 nM. As for the experimental part: (§1) Cell Survival Assay: Standard Pharmacological Test Procedure. […] Compounds are incubated with cells for 3 days.
A further experiment relates to KB85. Kind of experiment: cells. The experiment is classed as cell-based. As to conditions: for IC50: 3 days, SRB; for inhibition at 3 µM: 3000 nM. As for the experimental part: as §1
A further experiment relates to KBV1. Kind of experiment: cells. As to conditions: for inhibition at 3 µM: KB-V1, 3000 nM; for IC50: 3 days, SRB. The experiment is classed as cell-based. As for the experimental part:
as §1

Another experiment deals with Colo205. Kind of experiment: Cell survival assay (SRB), Colo205. The experiment is classed as cell-based. The settings on record: Homo sapiens, COLO 205, 72 h, Colo205 cells, 3 days. On the procedure:
as §1

Marks after values point to notes of the source that are not given here.

As usually defined, the IC50 is the concentration that inhibits the measured activity by half. Lower therefore signals inhibition by little substance. As usually defined, the inhibition is the drop in the measured response relative to a control, in per cent. A high value points to a response far below the control. On to `CN[C@H](C(=O)N[C@H](C(=O)N(C)[C@H](/C=C(\C)C(=O)NO)C(C)C)C(C)(C)C)C(C)(C)c1ccccc1` [Example 25, (E,4S)-4-[((2S)-3,3-dimethyl-2-{[(2S)-3-methyl-2-(methylamino)-3-phenylbutanoyl]amino}butanoyl)(methyl)amino]-N-hydroxy-2,5-dimethyl-2-hexenamide], for which the “Tubulin Polym. % inhibition at 0.3 uM” value in experiment [1] was found to be 75%. Also, the IC50 in the experiment with KB cells (Homo sapiens, KB, 72 h) turned out to be 39 nM; in the experiment with KB85 (72 h) it was 227 nM; in the experiment with Colo205, 20 nM. Further, testing at 3 µM in the experiment on KBV1 (Homo sapiens) gave an inhibition of 7%.

Take `CCOC(=O)/C(C)=C/[C@H](C(C)C)N(C)C(=O)[C@@H](NC(=O)C(CC)C(C)(C)c1ccccc1)C(C)(C)C` (stereo partly drawn) [Example 99, Ethyl (E,4S)-4-[((2S)-3,3-dimethyl-2-{[3-methyl-2-ethyl-3-phenylbutanoyl]amino}butanoyl)(methyl)amino]-2,5-dimethyl-2-hexenoate]: the IC50 is 3480 nM in the experiment on KB cells (Homo sapiens, KB, 72 h); 3640 nM with KB85 (72 h); more than 1000 nM with Colo205. For the same molecule, the “KBV1 % inhibition @6000” value in the experiment on KBV1 was determined as 16%@6000.

With `CCOC(=O)/C(C)=C/[C@H](C(C)C)N(C)C(=O)[C@@H](NC(=O)C(SC)C(C)(C)c1ccccc1)C(C)(C)C` (stereo partly drawn) [Example 101, Ethyl (E,4S)-4-[((2S)-3,3-dimethyl-2-{[3-methyl-2-methylsulfanyl-3-phenylbutanoyl]amino}butanoyl)(methyl)amino]-2,5-dimethyl-2-hexenoate], the half-maximal inhibitory concentration (IC50) is 1100 nM in the experiment on KB cells (Homo sapiens, KB, 72 h); 1820 nM in the experiment with KB85 (72 h); 4580 nM in the experiment with KBV1 (Homo sapiens, KB-V1, 72 h); more than 1000 nM with Colo205.

For `CCOC(=O)/C(C)=C/[C@H](C(C)C)N(C)C(=O)[C@@H](NC(=O)C(Cc1ccccc1)C(C)(C)c1ccccc1)C(C)(C)C` (stereo partly drawn) [Example 95, Ethyl (E,4S)-4-[((2S)-3,3-dimethyl-2-{[3-methyl-2-(benzyl)-3-phenylbutanoyl]amino}butanoyl)(methyl)amino]-2,5-dimethyl-2-hexenoate], the half-inhibitory concentration (IC50) is 575 nM in the experiment with KB cells (Homo sapiens, KB, 72 h); 756 nM in the experiment on KB85 (72 h); more than 1000 nM in the experiment with Colo205. The molecule further came in with an inhibition at 3 µM with KBV1 (Homo sapiens) of 15%.

For `C=CCC(C(=O)N[C@H](C(=O)N(C)[C@H](/C=C(\C)C(=O)OCC)C(C)C)C(C)(C)C)C(C)(C)c1ccccc1` (stereo partly drawn) [Example 97, Ethyl (E,4S)-4-[((2S)-3,3-dimethyl-2-{[3-methyl-2-allyl-3-phenylbutanoyl]amino}butanoyl)(methyl)amino]-2,5-dimethyl-2-hexenoate], the IC50 in the experiment on KB cells (Homo sapiens, KB, 72 h) is 1910 nM; in the experiment with KB85 (72 h), 3320 nM; with Colo205, more than 1000 nM. The “KBV1 % inhibition @6000” value in the experiment with KBV1 is on record as 17%@6000.

With `CN[C@H](C(=O)N[C@H](C(=O)N(C)[C@H](/C=C(\C)C=O)C(C)C)C(C)(C)C)C(C)(C)c1ccc([S+](C)C)cc1.O=C(O)C(F)(F)F` [Example 83, 4-(dimethylsulfonio)-N,β,β-trimethyl-L-phenylalanyl-N^1-[(1S,2E)-1-isopropyl-3-methyl-4-oxo-2-butenyl]-N^1,3-dimethyl-L-valinamide trifluoroacetic acid], the “Tubulin Polym. % inhibition at 0.3 uM” value in experiment [1] turned out to be 0%. For the same molecule, the IC50 is more than 3000 nM with KBV1 (trifluoroacetic acid); 2400 nM with KBV1 (Homo sapiens, KB-V1, 72 h); 46 nM in the experiment with Colo205.

Turning to “N,β,β-trimethyl-L-phenylalanyl-N^1-[(1S,2E)-1-isopropyl-4-((2S)-2-{(1R,2R)-1-methoxy-2-methyl-3-[(4R,5S)-4-methyl-2-oxo-5-phenyl-1,3-oxazolidin-3-yl]-3-oxopropyl}pyrrolidin-1-yl)-3-methyl-4-oxovalinamide [Example 32]”, in experiment [1], the “Tubulin Polym. % inhibition at 0.3 uM” value was 99(2) %. Also, the IC50 in the experiment with KB cells is 12 nM; in the experiment on KB85, 45 nM; with KBV1, 636 nM.

On to `CN[C@H](C(=O)N[C@H](C(=O)N(C)[C@H](/C=C(\C)CO)C(C)C)C(C)(C)C)C(C)(C)c1ccccc1` [Example 81], for which the “Tubulin Polym. % inhibition at 0.3 uM” value in experiment [1] was determined as 71%. For the same molecule, the IC50 worked out at 454 nM in the experiment with KB cells, 447 nM in the experiment on KB85 and 1590 nM in the experiment with KBV1.

For `CN[C@H](C(=O)N[C@H](C(=O)N(C)[C@H](/C=C(\C)C(=O)N1CCN(Cc2ccccc2)CC1)C(C)C)C(C)(C)C)C(C)(C)c1ccc(C)c(C)c1` [Example 12, N,β,β,3,4-Pentamethyl-L-phenylalanyl-N^1-[(1S,2E)-4-(4-benzylpiperazin-1-yl)-1-isopropyl-3-methyl-4-oxobut-2-enyl]-N^1,3-dimethyl-L-valinamide], the “Tubulin Polym. % inhibition at 0.3 uM” value in experiment [1] is listed as 51%. In addition, the IC50 with KB cells (Homo sapiens, KB, 72 h) is 48 nM; with KB85 (72 h) it was 65 nM; in the experiment with KBV1 (Homo sapiens, KB-V1, 72 h), 1330 nM.

In the case of `CN[C@H](C(=O)N[C@H](C(=O)N(C)[C@H](/C=C(\C)C(=O)N1CCC[C@H]1C(=O)OC)C(C)C)C(C)(C)C)C(C)(C)C1CCCCC1` [Example 45, 3-cyclohexyl-N-methyl-L-valyl-N^1-{(1S,2E)-4-[(2S)-2-(methoxycarbonyl)pyrrolidin-1-yl]-1-isopropyl-3-methyl-4-oxobut-2-enyl}-N^1,3-dimethyl-L-valinamide], in experiment [1], the “Tubulin Polym. % inhibition at 0.3 uM” value is on record as 62(2) %. Further, the IC50 came out at 3.7 nM in the experiment on KB cells (Homo sapiens, KB, 72 h); 16 nM with KB85 (72 h); 493 nM with KBV1 (Homo sapiens, KB-V1, 72 h).

Regarding `CN[C@H](C(=O)N[C@H](C(=O)N(C)[C@H](/C=C(/C)S(=O)(=O)O)C(C)C)C(C)(C)C)C(C)(C)c1ccccc1` [Example 67, N,β,β-trimethyl-L-phenylalanyl-N^1-[(1S,2Z)-1-isopropyl-3-sulfobut-2-enyl]-N^1,3-dimethyl-L-valinamide], the “Tubulin Polym. % inhibition at 0.3 uM” value in experiment [1] was 21%. Moreover, the inhibition at 3 µM with KB cells (Homo sapiens, 72 h) came out at 0%; in the experiment on KB85 it was 0%; with KBV1 (Homo sapiens), 0%.

For `CCOS(=O)(=O)/C(C)=C/[C@H](C(C)C)N(C)C(=O)[C@@H](NC(=O)[C@@H](NC)C(C)(C)c1ccccc1)C(C)(C)C` [Example 65, N,β,β-trimethyl-L-phenylalanyl-N^1-[(1S,2E)-3-(ethoxysulfonyl)-1-isopropylbut-2-enyl]-N^1,3-dimethyl-L-valinamide], in experiment [1], the “Tubulin Polym. % inhibition at 0.3 uM” value is listed as 44%. The inhibition at 3 µM in the experiment with KB cells (Homo sapiens, 72 h) was 11%; with KB85 it was 1%; with KBV1 (Homo sapiens), 0%.

As for `CN[C@H](C(=O)N[C@H](C(=O)N(C)[C@H](/C=C(\C)C(=O)N1CCC[C@H]1C(=O)N1CCC[C@H]1C(=O)NCc1ccccc1)C(C)C)C(C)(C)C)C(C)(C)c1ccc(C)c(C)c1` [Example 10, 1-{(2E,4S)-2,5-Dimethyl-4-[methyl(N,β,β,3,4-pentamethyl-L-phenylalanyl-3-methyl-L-valyl)amino]hex-2-enoyl}-L-prolyl-N-benzyl-L-prolinamide], the “Tubulin Polym. % inhibition at 0.3 uM” value in experiment [1] is reported as 42%. Moreover, the IC50 amounted to 1.5 nM with KB cells (Homo sapiens, KB, 72 h); 19.7 nM in the experiment with KB85 (72 h); 2140 nM in the experiment with KBV1 (Homo sapiens, KB-V1, 72 h).

Consider `CN[C@H](C(=O)N[C@H](C(=O)N(C)[C@H](/C=C(\C)C(=O)N1CCCC[C@H]1C(=O)OC)C(C)C)C(C)(C)C)C(C)(C)c1ccccc1` [Example 49, N,β,β-trimethyl-L-phenylalanyl-N^1-{(1S,2E)-1-isopropyl-4-[(2S)-2-(methoxycarbonyl)piperidin-1-yl]-3-methyl-4-oxobut-2-enyl}-N^1,3-dimethyl-L-valinamide], for which the “Tubulin Polym. % inhibition at 0.3 uM” value in experiment [1] is given as 62(2) %. The half-maximal inhibitory concentration (IC50) in the experiment on KB cells (Homo sapiens, KB, 72 h) is 5.2 nM; in the experiment with KB85 (72 h), 17 nM; with KBV1 (Homo sapiens, KB-V1, 72 h) it was 150 nM.

As for “3-hydroxy-N-methyl-L-valyl-N^1-[(1S,2E)-4-ethoxy-1-isopropyl-3-methyl-4-oxo-2-butenyl]-N^1,3-dimethyl-L-valinamide and 3-hydroxy-N,N-dimethyl-L-valyl-N^1-[(1S,2E)-4-ethoxy-1-isopropyl-3-methyl-4-oxo-2-butenyl]-N^1,3-dimethyl-L-valinamide [Example 61]”, in experiment [1], the “Tubulin Polym. % inhibition at 0.5 uM” value is 40*** %. For the same molecule, the values for the IC50 in the experiment with KB cells, in the experiment with KB85 and in the experiment with KBV1 were 151 nM, 293 nM and more than 3000 nM, respectively.

In the case of `CN[C@H](C(=O)N[C@H](C(=O)N(C)[C@H](/C=C/P(=O)(O)O)C(C)C)C(C)(C)C)C(C)(C)c1ccccc1` [Example 70, N,β,β-trimethyl-L-phenylalanyl-N^1-[(1S,2E)-1-isopropyl-3-phosphonoprop-2-enyl]N^1,3-dimethyl-L-valinamide], the “Tubulin Polym. % inhibition at 0.3 uM” value in experiment [1] is reported as 69%. For the same molecule, the inhibition at 3 µM stood at 0% in the experiment with KB cells (Homo sapiens, 72 h); 0% with KB85; 3% in the experiment with KBV1 (Homo sapiens).

For `CN[C@@H](C(=O)N[C@H](C(=O)N(C)[C@H](/C=C(\C)C(=O)N1CCOCC1)C(C)C)C(C)(C)C)C(C)(C)c1cc(C)cc(C)c1` [Example 5, N,β,β,3,5-Pentamethyl-D-phenylalanyl-N^1-[(1S,2E)-1-isopropyl-3-methyl-4-morpholin-4-yl-4-oxobut-2-enyl]-N^1,3-dimethyl-L-valinamide], the “Tubulin Polym. % inhibition at 0.3 uM” value in experiment [1] stood at 57%. Besides, the IC50 in the experiment on KB cells (Homo sapiens, KB, 72 h) was 207 nM; with KB85 (72 h), 459 nM. For the same molecule, the inhibition at 3 µM in the experiment with KBV1 (Homo sapiens) came out at 40%.

For the molecule `CN[C@H](C(=O)N[C@H](C(=O)N(C)[C@H](/C=C(\C)C(=O)N1C[C@H](O)C[C@H]1C(=O)OC)C(C)C)C(C)(C)C)C(C)(C)c1ccccc1` [Example 40, N,β,β-trimethyl-L-phenylalanyl-N^1-{(1S,2E)-4-[(2S,4R)-2-(methoxycarbonyl)-4-hydroxypyrrolidin-1-yl]-1-isopropyl-3-methyl-4-oxobut-2-enyl}-N^1,3-dimethyl-L-valinamide], the “Tubulin Polym. % inhibition at 0.5 uM” value in experiment [1] is given as 93*** %. The concentration for half-maximal inhibition (IC50) with KB cells (Homo sapiens, KB, 72 h) is 3.5 nM; in the experiment on KB85 (72 h), 116 nM. This molecule also registered an inhibition at 3 µM in the experiment with KBV1 (Homo sapiens) of 4%.
